# Biological target: human DPP1 enzyme (Homo sapiens (Human), UniProt P53634)
# Assay: Human DPP1 Enzyme IC50 Assay
# Assay type: biochemical
# Settings: recombinant human DPP1 activated with cathepsin L, H-Gly-Arg-AMC substrate, 10 min pre-incubation at 37° C., MES pH 6.0
# Method: Recombinant human DPP1 enzyme (R&D Systems; Minneapolis, MN) was first proteolytically processed into its mature form using recombinant human cathepsin L (R&D Systems) in a buffer consisting of 20 mM citric acid pH 4.5, 150 mM NaCl, 1 mM EDTA and 10 mM DTT. Test articles were applied to activated human DPP1 enzyme in Assay Buffer (25 mM MES pH 6.0, 50 mM NaCl, 5 mM DTT) in a total reaction volume of 125 μL. 25 μL of compound in Assay Buffer plus 5% DMSO was first added to 50 μL of activated human DPP1 enzyme at a concentration of 1 ng/μL and allowed to pre-incubate for 10 minutes at 37° C. after which 50 μL of 1000 μM H-Gly-Arg-AMC substrate (Bachem; St. Torrance, CA) was added, giving final substrate concentration of 400 µM and a final DMSO concentration of 1%. Substrate cleavage was measured for 90 minutes at 37° C., with fluorescence at Excitation/Emission 350/450 nm measured every 5 minutes. DPP1 concentration was interpolated based on its activity relative to a standard curve of activated human recombinant DPP1 enzyme. IC50 values for each compound were calculated via the XLFit (IDBS Version 5.3.1.3) Add-On to Microsoft Excel using the four parameter fit equation y={A+[(B−A)]/[1+((C/x)^D)]}, which appears as equation number 205 (4 Parameter Logistic Model or Sigmoidal Dose-Response Model) in XLFit. Default constraints were used for each Parameter. IC50 was defined as the compound concentration at which 50% of enzyme activity was inhibited when compared to the no-compound control.
# human DPP1 enzyme, sequence (P53634 25-134): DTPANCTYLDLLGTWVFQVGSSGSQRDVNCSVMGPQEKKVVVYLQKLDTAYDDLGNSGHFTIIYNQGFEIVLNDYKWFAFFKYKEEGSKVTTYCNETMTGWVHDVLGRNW
# human DPP1 enzyme, sequence (P53634 231-394): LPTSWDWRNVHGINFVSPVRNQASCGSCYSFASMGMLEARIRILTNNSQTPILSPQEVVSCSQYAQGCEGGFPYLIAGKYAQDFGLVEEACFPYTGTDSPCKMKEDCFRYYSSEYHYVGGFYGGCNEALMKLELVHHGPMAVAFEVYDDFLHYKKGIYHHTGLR
# human DPP1 enzyme, sequence (P53634 395-463): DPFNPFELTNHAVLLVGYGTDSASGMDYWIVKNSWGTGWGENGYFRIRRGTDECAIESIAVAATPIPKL
row,SMILES,IC50 [nM]
1,Cn1c(=O)oc2ccc(-c3ccc(C[C@@H](C#N)NC(=O)[C@H]4CCCCCNC4)cc3)cc21,49.8
2,"Cn1c(=O)oc2ccc(-c3ccc(C[C@@H](C#N)NC(=O)[C@@H]4CNC[C@@](C)(O)CO4)c(F)c3)cc21 (single isomer, unassigned)",14.1 ± 3
3,"Cn1c(=O)oc2ccc(-c3ccc(C[C@@H](C#N)NC(=O)[C@@H]4CNC[C@](C)(O)CO4)c(F)c3)cc21 (single isomer, unassigned)",13.6 ± 2.1
4,"Cn1c(=O)oc2ccc(-c3ccc(C[C@@H](C#N)NC(=O)[C@@H]4CNCC(O)(C(F)(F)F)CO4)cc3)cc21 (single isomer, unassigned)",3750
5,"C=C[C@]1(O)CNC[C@@H](C(=O)N[C@H](C#N)Cc2ccc(-c3ccc4oc(=O)n(C)c4c3)cc2)OC1 (single isomer, unassigned)",1470
6,"Cn1c(=O)oc2ccc(-c3ccc(C[C@@H](C#N)NC(=O)[C@@H]4CNC[C@](O)(CO)CO4)cc3)cc21 (single isomer, unassigned)",781
7,"C=CCC1(O)CNC[C@@H](C(=O)N[C@H](C#N)Cc2ccc(-c3ccc4oc(=O)n(C)c4c3)cc2)OC1 (single isomer, unassigned)",1020
8,"CCC[C@]1(O)CNC[C@@H](C(=O)N[C@H](C#N)Cc2ccc(-c3ccc4oc(=O)n(C)c4c3)cc2)OC1 (single isomer, unassigned)",> 5000
9,"CCC[C@@]1(O)CNC[C@@H](C(=O)N[C@H](C#N)Cc2ccc(-c3ccc4oc(=O)n(C)c4c3)cc2)OC1 (single isomer, unassigned)",769
10,"CC(C)CO[C@@]1(C)CNC[C@@H](C(=O)N[C@H](C#N)Cc2ccc(-c3ccc4oc(=O)n(C)c4c3)cc2)OC1 (single isomer, unassigned)",> 5000
11,"CC(C)CO[C@]1(C)CNC[C@@H](C(=O)N[C@H](C#N)Cc2ccc(-c3ccc4oc(=O)n(C)c4c3)cc2)OC1 (single isomer, unassigned)",> 5000
12,"Cn1c(=O)oc2ccc(-c3ccc(C[C@@H](C#N)NC(=O)[C@@H]4CNCC(O)(Cc5ccccn5)CO4)cc3)cc21 (single isomer, unassigned)",> 5000
13,"Cn1c(=O)oc2ccc(-c3ccc(C[C@@H](C#N)NC(=O)[C@@H]4CNC[C@@](O)(CO)CO4)cc3)cc21 (single isomer, unassigned)",234
14,"Cn1c(=O)oc2ccc(-c3ccc(C[C@@H](C#N)NC(=O)[C@@H]4CNC[C@]5(CCO5)CO4)cc3)cc21 (single isomer, unassigned)",729
15,"Cn1c(=O)oc2ccc(-c3ccc(C[C@@H](C#N)NC(=O)[C@@H]4CNCC5(CCCO5)CO4)cc3)cc21 (single isomer, unassigned)",95.9 ± 4.4
16,"Cn1c(=O)oc2ccc(-c3ccc(C[C@@H](C#N)NC(=O)C4CCCC(O)CNC4)cc3)cc21 (single isomer, unassigned)",230
17,"Cn1c(=O)oc2ccc(-c3ccc(C[C@@H](C#N)NC(=O)[C@@H]4CNC[C@@H](O)CCO4)cc3)cc21 (single isomer, unassigned)",198
18,"Cn1c(=O)oc2ccc(-c3ccc(C[C@@H](C#N)NC(=O)[C@@H]4CNCC[C@H](O)CO4)cc3)cc21 (single isomer, unassigned)",67.4
19,"Cn1c(=O)oc2ccc(-c3ccc(C[C@@H](C#N)NC(=O)[C@@H]4CNC[C@@](C)(O)CCO4)cc3)cc21 (single isomer, unassigned)",243
20,"Cn1c(=O)oc2ccc(-c3ccc(C[C@@H](C#N)NC(=O)[C@@H]4CNC[C@](C)(O)CCO4)cc3)cc21 (single isomer, unassigned)",23.2 ± 2

row,SMILES,IC50 [nM]
1,"CCO[C@H]1CCO[C@H](C(=O)N[C@H](C#N)Cc2ccc(-c3ccc4oc(=O)n(C)c4c3)cc2)CNC1 (single isomer, unassigned)",> 5000
2,"CCO[C@H]1CCNC[C@@H](C(=O)N[C@H](C#N)Cc2ccc(-c3ccc4oc(=O)n(C)c4c3)cc2)OC1 (single isomer, unassigned)",457
3,"Cn1c(=O)oc2ccc(-c3ccc(C[C@@H](C#N)NC(=O)[C@@H]4CNCCC(C)(O)CO4)cc3)cc21 (single isomer, unassigned)",2240
4,"CCO[C@@H]1CCO[C@H](C(=O)N[C@H](C#N)Cc2ccc(-c3ccc4oc(=O)n(C)c4c3)cc2)CNC1 (single isomer, unassigned)",27
5,"CO[C@H]1CCO[C@H](C(=O)N[C@H](C#N)Cc2ccc(-c3ccc4oc(=O)n(C)c4c3)cc2)CNC1 (single isomer, unassigned)",1140
6,"Cn1c(=O)oc2ccc(-c3ccc(C[C@@H](C#N)NC(=O)[C@@H]4CNCCCCO4)cc3)cc21 (single isomer, unassigned) [drawing 513]",25.1 ± 3.1
7,"Cn1c(=O)oc2ccc(-c3ccc(C[C@@H](C#N)NC(=O)[C@@H]4CNC[C@](C)(O)CO4)cc3)cc21 (single isomer, unassigned) [drawing 514]",314 ± 201
8,"CC[C@@]1(O)CNC[C@@H](C(=O)N[C@H](C#N)Cc2ccc(-c3ccc4oc(=O)n(C)c4c3)cc2)OC1 (single isomer, unassigned) [drawing 518]",25.1
9,"CC[C@]1(O)CNC[C@@H](C(=O)N[C@H](C#N)Cc2ccc(-c3ccc4oc(=O)n(C)c4c3)cc2)OC1 (single isomer, unassigned) [drawing 519]",2740
10,"CC(C)[C@]1(O)CNC[C@@H](C(=O)N[C@H](C#N)Cc2ccc(-c3ccc4oc(=O)n(C)c4c3)cc2)OC1 (single isomer, unassigned) [drawing 520]",> 5000
11,"Cn1c(=O)oc2ccc(-c3ccc(C[C@@H](C#N)NC(=O)[C@@H]4CNCC5(CCO5)CO4)cc3)cc21 (single isomer, unassigned) [drawing 530]",4.2 ± 0.8
12,"Cn1c(=O)oc2ccc(-c3ccc(C[C@@H](C#N)NC(=O)[C@@H]4CNC[C@@]5(CCO5)CO4)cc3)cc21 (single isomer, unassigned) [drawing 532]",3.04 ± 0.8
13,"Cn1c(=O)oc2ccc(-c3ccc(C[C@@H](C#N)NC(=O)[C@@H]4CNCCCCO4)cc3)cc21 (single isomer, unassigned) [drawing 535]",22.3 ± 2
14,"CN1CC2(C1)OC(=O)c1ccc(-c3ccc(C[C@@H](C#N)NC(=O)[C@@H]4CNCCCCO4)cc3)cc12 (single isomer, unassigned) [drawing 536]",30.9 ± 2
15,"CCO[C@@H]1CCNC[C@@H](C(=O)N[C@H](C#N)Cc2ccc(-c3ccc4oc(=O)n(C)c4c3)cc2)OC1 (single isomer, unassigned) [drawing 544]",4.91 ± 0.9
16,"CO[C@H]1CCNC[C@@H](C(=O)N[C@H](C#N)Cc2ccc(-c3ccc4oc(=O)n(C)c4c3)cc2)OC1 (single isomer, unassigned) [drawing 547]",74.7
17,"Cn1c(=O)oc2ccc(-c3ccc(C[C@@H](C#N)NC(=O)C4CCCCCNC4)c(F)c3)cc21 (single isomer, unassigned) [drawing 548]",15.8 ± 6.8
18,"Cn1c(=O)oc2ccc(-c3ccc(C[C@@H](C#N)NC(=O)[C@H]4CCCCCNC4)c(F)c3)cc21 (single isomer, unassigned) [drawing 549]",140 ± 59.3
19,"CCO[C@@]1(C)CNC[C@@H](C(=O)N[C@H](C#N)Cc2ccc(-c3ccc4oc(=O)n(C)c4c3)cc2)OC1 (single isomer, unassigned) [drawing 551]",> 5000
20,"CCO[C@]1(C)CNC[C@@H](C(=O)N[C@H](C#N)Cc2ccc(-c3ccc4oc(=O)n(C)c4c3)cc2)OC1 (single isomer, unassigned) [drawing 552]",1680
